# Measured values from patent US20240287042A1, “NOVEL COMPOUND HAVING INHIBITORY ACTIVITY AGAINST PENDRIN, AND PHARMACEUTICAL USES THEREOF” (UIF (University Industry Foundation), Yonsei University, priority 2021, published 2024).
# How the values were obtained:
# [1] = tested on: SLC26A4 (pendrin); assay: Pendrin protein and mRNA expression after LPS in hAEC; type: cell-based, human
# [2] = target: T1, human wild-type pendrin (Homo sapiens, UniProt O43511); assay: Pendrin Cl−/SCN− exchange activity in human alveolar epithelial cells (hAEC) overexpressing pendrin; type: cell-based; details: 0.3 μM to 30 μM, read-out: IC50 of human wild-type pendrin-mediated Cl−/SCN− exchange activity
# T1 construct: expressed in transfected cells; host or cells: human alveolar epithelial cells (hAEC) overexpressing pendrin
# T1 sequence (O43511 1-780): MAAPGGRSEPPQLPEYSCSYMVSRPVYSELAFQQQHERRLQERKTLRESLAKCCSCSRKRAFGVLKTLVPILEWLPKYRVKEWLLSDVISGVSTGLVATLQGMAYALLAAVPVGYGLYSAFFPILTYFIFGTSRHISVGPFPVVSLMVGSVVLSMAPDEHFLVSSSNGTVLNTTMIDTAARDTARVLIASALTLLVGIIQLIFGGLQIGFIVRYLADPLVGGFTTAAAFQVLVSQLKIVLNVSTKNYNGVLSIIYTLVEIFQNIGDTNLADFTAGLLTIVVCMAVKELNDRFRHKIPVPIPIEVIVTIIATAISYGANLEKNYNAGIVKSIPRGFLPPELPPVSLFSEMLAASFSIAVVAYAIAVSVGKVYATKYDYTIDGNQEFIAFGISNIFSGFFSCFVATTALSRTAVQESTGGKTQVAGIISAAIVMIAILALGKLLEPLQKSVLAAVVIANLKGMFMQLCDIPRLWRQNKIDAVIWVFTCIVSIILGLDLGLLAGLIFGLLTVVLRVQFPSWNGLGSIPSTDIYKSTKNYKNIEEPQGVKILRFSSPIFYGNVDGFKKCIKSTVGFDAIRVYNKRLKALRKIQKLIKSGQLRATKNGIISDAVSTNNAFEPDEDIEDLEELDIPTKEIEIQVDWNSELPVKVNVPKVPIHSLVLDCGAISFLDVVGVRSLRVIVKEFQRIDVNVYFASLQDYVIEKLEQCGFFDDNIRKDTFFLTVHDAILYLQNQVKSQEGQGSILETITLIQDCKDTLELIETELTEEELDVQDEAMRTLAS
# Method: In FIG. 13a, human alveolar epithelial cells (hAEC) overexpressing pendrin were treated with YPI-A4948 as a novel pendrin inhibitor from 0.3 μM to 30 μM, and the Cl^−/SCN^− exchange ability of SLC26A4 was measured by the change in YFP fluorescence when compared to before YPI-A4948 treatment. The IC50 of human wild-type pendrin-mediated Cl^−/SCN^− exchange activity was confirmed to be 0.9 μM.
# [3] = target: T2, SLC26A6 (Homo sapiens, UniProt Q9BXS9); assay: SLC26A6 activity, YFP fluorescence in LN-215 cells; type: cell-based; details: FIG. 16
# T2 construct: expressed in transfected cells
# T2 sequence (Q9BXS9 1-759): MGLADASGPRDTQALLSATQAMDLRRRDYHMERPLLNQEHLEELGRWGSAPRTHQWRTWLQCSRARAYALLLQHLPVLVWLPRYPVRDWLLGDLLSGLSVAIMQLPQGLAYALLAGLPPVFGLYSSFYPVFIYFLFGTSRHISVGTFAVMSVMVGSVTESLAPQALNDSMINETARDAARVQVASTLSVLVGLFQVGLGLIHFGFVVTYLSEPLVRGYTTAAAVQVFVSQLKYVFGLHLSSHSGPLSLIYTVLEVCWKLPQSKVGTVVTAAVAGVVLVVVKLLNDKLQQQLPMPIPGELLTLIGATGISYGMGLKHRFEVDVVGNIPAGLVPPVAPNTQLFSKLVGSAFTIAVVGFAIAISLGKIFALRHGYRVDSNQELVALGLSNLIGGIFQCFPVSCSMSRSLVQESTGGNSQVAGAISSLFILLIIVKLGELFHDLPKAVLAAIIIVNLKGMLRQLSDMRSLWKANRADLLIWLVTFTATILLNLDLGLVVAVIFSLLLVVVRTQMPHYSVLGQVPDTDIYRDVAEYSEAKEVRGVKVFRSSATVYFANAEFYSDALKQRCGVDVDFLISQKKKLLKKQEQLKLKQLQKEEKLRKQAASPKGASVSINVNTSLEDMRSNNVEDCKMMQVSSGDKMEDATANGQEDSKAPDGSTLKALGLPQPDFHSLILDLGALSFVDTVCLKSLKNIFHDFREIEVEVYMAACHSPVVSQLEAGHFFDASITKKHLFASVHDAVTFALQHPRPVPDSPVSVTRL
# Method: In the case of SLC26A3 and SLC26A6, each transporter protein and halide sensitive YFP were expressed in LN-215 cells to measure the activity of the transporter protein.
# Other details were carried out in the same manner as Example 5.
# [4] = tested on: LPS-induced lung injury mouse model; assay: LPS-induced lung injury mouse model with anion supply; type: in vivo, mice; details: 5 μg/kg i.v. once 6 h after LPS
# Method: Specifically, lipid polysaccharide (LPS, 200 μg/head) dissolved in 50 μL PBS was injected intranasally, and 6 hours after LPS inhalation, YPI-A4948 was intravenously administered once at 5 μg/kg, and at the same time, OH^−, HCO3^−, and SCN^− anions were administered intranasally, respectively. The mice were euthanized 24 hours after LPS inhalation to remove the lungs. Then, lung tissue H&E staining was performed to observe the degree of lung injury, and bronchoalveolar lavage fluid (BALF) was extracted in the same manner as in Example 12, and cytopathology staining using BALF total cell count, BALF protein concentration level, and Diff-Quik Stain was performed. Data provided are mean±SEM (n=3-5 per group), scale bar is 50 μm for H&E staining and cytopathology staining imaged at 400×.
# [5] = tested on: LPS-induced acute lung injury model; assay: LPS-induced acute lung injury model, i.p. pre- and post-treatment; type: in vivo, C57BL/6N mice; details: vs vehicle-treated LPS mice
# Method: Wild-type male C57BL/6N mice aged 8 to 10 weeks and weighing 20-24 g were purchased from Orient Bio (Seongnam, South Korea). […] Specifically, LPS (Escherichia coli, 0111: B4, Sigma) (10 μg/g) dissolved in 50 μL PBS was administered by intranasal (i.n.) inhalation. The control group received 50 μL of sterile PBS through intranasal administration. For pretreatment, YPI-A4948 dissolved in 50 μL DMSO was administered intraperitoneally (i.p) at 0.1 mg/kg, 1.0 mg/kg and 10 mg/kg, respectively, 1 hour before LPS inhalation, and for post-treatment, YPI-A4948 was administered at 0.1 mg/kg, 1.0 mg/kg, and 10 mg/kg, respectively, 12 hours after LPS inhalation. The vehicle control group was intraperitoneally administered with 50 μL DMSO at the same time point as pretreatment and post-treatment. Mice were euthanized 48 hours after LPS inhalation to remove the lungs. In addition, BALF cytospin staining and H&E lung tissue staining were performed to observe the degree of lung injury.
# [6] = i.p. 0.1, 1.0, 10 mg/kg 1 h before and 12 h after LPS
structure (smiles),measurement,setting,value
"Cc1ccc2[nH]c(C(=O)O)c(CC(=O)N3CCN(c4c(C)cccc4Cl)CC3)c2c1 [YPI-A4948, 3-(2-(4-(2-Chloro-6-methylphenyl)piperazin-1-yl)-2-oxoethyl)-5-methyl-1H-indole-2-carboxylic acid]",Protein expression level of SLC26A4 (pendrin),[1]; LPS treatment after YPI-A4948 pretreatment in vitro,inhibited by YPI-A4948 in a dose-dependent manner
same,mRNA expression level of pendrin,[1]; increased by LPS in vitro,not statistically significantly reduced
same,IC50,[2],900 nM
same,Effect on activity of SLC26A6,[3],did not inhibit
same,Lung injury,[4],reduced
same,"Lung injury improvement effect when OH−, HCO3−, SCN− anions are supplied intranasally",[4],weakened only by SCN^−
same,BALF protein concentration,[5]; [6],significantly reduced
same,BALF total cell counts,[5]; [6],significantly reduced
same,Lung injury (BALF cytospin and H&E lung tissue staining),[5]; i.p. before and after LPS,significantly reduced
